Earlier results on one compound are cited in patent US6172079A, “5-substituted-3-oxadiazolyl-1,6-naphthyridin-2(1H)-one derivatives” (Dainippon Pharmaceutical Co., Ltd., priority 1997, dated 2001).

The structures appear in SMILES notation.

The series relates to GABAA receptor. Conditions: background statement; cited from earlier work.

`CCc1c(C(=O)OC)ncc2[nH]c3cc(OC)c(OC)cc3c12` [DMCM, methyl-6,7-dimethoxy-4-ethyl-β-carboline-3-carboxylate]: the “uptake of Cl ion into cells” value is reported as “increased”.
